Reference: article PMC4775225, “Bromodomain inhibition of the transcriptional coactivators CBP/EP300 as a therapeutic strategy to target the IRF4 network in multiple myeloma” (eLife, 2016)

Assays:
[1] = target: T1, CBP bromodomain (amino acids 1082–1197) (Homo sapiens, UniProt Q92793); experiment: AlphaLISA, acetylated peptide binding to CBP bromodomain
T1 construct: His-Flag-tagged CBP bromodomain (amino acids 1082–1197)
Protocol: Compound at varying concentrations were dispensed into 384 well Proxiplates (Perkin Elmer) using Echo technology (Labcyte, Inc.; Sunnyvale, CA). For CBP assays, 0.5 μM His-Flag-tagged CBP bromodomain (amino acids 1082–1197) was incubated with 0.003 μM H4-TetraAc-biotin for 20 min at room temperature in 1x reaction buffer (50 mM HEPES pH 7.5, 1 mM TCEP, 0.069 mM Brij-35, 150 mM NaCl, and 0.1 mg/ml BSA). Streptavidin acceptor beads and nickel donor beads (Perkin Elmer) were added to 15 μg/ml with a Combi Multidrop dispenser. Plates were sealed and incubated at 90 min in the dark at room temperature, and plates were read on an Envision plate reader (Perkin Elmer) according to manufacturer’s instructions. For the BET assays, the protocol was similar except that BET family bromodomains were used at 0.03 μM (BRD4-BD1) and incubated with 0.2 μM H4-TetraAc-biotin for 20 min in reaction buffer (40 mM HEPES pH7.0, 1 mM DTT, 0.069 mM Brij-35, 40 mM NaCl, and 0.1 mg/ml BSA). Streptavidin donor beads and Anti-Flag Acceptor beads (Perkin Elmer) were added to 10 μg/ml, and then plates were sealed and incubated in the dark for 60 min prior to reading on the Envision.

[2] = target: T2, CBP bromodomain and histone H3.3 (Homo sapiens, UniProt Q92793); experiment: NanoBRET, CBP bromodomain/histone H3.3 in HEK293 cells; type: cell-based; conditions: 293 cells, CBP bromodomain and histone H3.3; n = 3 technical replicates ± SEM
T2 construct: NanoBRET with the isolated CBP bromodomain and histone H3.3 in 293 cells; host or cells: HEK293
T2 sequence (Q92793 1085-1192 limits assumed): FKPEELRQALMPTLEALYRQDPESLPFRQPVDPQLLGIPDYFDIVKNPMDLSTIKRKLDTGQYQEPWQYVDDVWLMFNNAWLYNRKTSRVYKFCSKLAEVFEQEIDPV
Protocol: NanoBRET was carried out using the NanoBRET Protein:Protein Interaction System (Promega, Inc.; Madison, WI) according to the manufacturer’s instructions. Briefly, HEK293 cells were transiently co-transfected with a vector for histone H3.3-HaloTag and a NanoLuc tagged CBP bromodomain expression construct. Transfected cells were plated in 96 -well plates in the presence or absence of ligand, then treated with dose titrations of indicated compounds. Readings were performed on an Envision Plate Reader (Perkin Elmer, Inc.; Waltham, MA) and BRET readings were calculated by dividing the acceptor emission value (600 nm) by the donor emission value (460/50 nm).

[3] = target: CBP-bromodomain/BRD9 ZsGreen fusion protein (Homo sapiens, UniProt Q92793); experiment: cell-based
CBP-bromodomain/BRD9 ZsGreen fusion protein, sequence (Q92793 1085-1192): as the sequence (Q92793 1085-1192 limits assumed) above
CBP-bromodomain/BRD9 ZsGreen fusion protein, sequence (Q9H8M2 with tags, fused parts or gaps partner): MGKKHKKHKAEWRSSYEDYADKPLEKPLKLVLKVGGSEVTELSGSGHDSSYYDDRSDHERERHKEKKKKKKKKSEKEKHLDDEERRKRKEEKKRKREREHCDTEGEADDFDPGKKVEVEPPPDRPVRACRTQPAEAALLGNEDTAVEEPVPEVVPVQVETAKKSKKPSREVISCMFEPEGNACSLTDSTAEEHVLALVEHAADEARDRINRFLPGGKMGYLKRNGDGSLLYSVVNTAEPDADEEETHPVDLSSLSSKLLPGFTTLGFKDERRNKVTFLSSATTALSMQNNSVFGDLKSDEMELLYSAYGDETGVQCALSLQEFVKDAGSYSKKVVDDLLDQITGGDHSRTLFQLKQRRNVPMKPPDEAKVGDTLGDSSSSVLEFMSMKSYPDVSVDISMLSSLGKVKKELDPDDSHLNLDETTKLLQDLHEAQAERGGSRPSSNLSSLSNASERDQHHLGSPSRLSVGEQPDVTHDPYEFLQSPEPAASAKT

CBP bromodomain = CBP bromodomain (Homo sapiens, UniProt Q92793); experiment: biochemical; conditions: read-out: DTm
CBP bromodomain, sequence (Q92793 1085-1192 limits assumed): as the sequence (Q92793 1085-1192 limits assumed) above

[4] = tested on: H3K18 and H3K27 acetylation in LP-1 cells; experiment: Western analysis of global histone acetylation; type: cell-based, human; conditions: LP-1, 16 hr
Protocol: Whole cell extracts were prepared by lysis in RIPA buffer + EDTA (Boston Bioproducts, Inc.; Ashland, MA) with protease inhibitor cocktail (Roche Life Sciences; Indianapolis, IN). Extracts were subjected to SDS-PAGE and Western analysis with MYC (Cell Signaling (Danvers, MA) #5605), IRF4 (Cell Signaling #4964 or #4948), GAPDH (Life Technologies AM4300), CBP (Santa Cruz (Dallas, TX) sc-369), EP300 (Santa Cruz sc-584), or β-actin (Life Technologies AM4302) primary antibodies. For histone analysis, extracts were prepared by sulfuric acid extraction of permeablized nuclei, and extracted histones were subjected to SDS-PAGE and Western analysis with H3K18ac (Cell Signaling #9675), H3K27ac (EMD Millipore (Billerica, MA) 07–360), or H4 (Abcam (Cambridge, MA) 31830). Blots were incubated with DyLight conjugated secondary antibodies, imaged and quantified with a Licor fluorescence imager (Licor, Inc.; Lincoln, NE), or with HRP- conjugated secondary antibodies for ECL visualization.

T1 sequence (Q92793 1082-1197): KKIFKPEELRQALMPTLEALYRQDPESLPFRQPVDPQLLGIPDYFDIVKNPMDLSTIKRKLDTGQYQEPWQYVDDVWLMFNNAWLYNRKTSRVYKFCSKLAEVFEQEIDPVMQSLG

CCC(=O)N1CCOc2c(cc(-c3ccc(OC)c(OC)c3)cc2OC[C@H]2CCCN(C)C2)C1 [I-CBP112]
IC50 [1]: 190 ± 20 nM | IC50 (μM), CBP BRET (EC50, NanoBRET) [2]: 0.25 ± 0.03 µM | EC50 [3]: 1700 ± 340 nM | ΔTm at 20 µM (CBP bromodomain): 4.52 °C

COc1ccc(CCc2nc3cc(-c4c(C)noc4C)ccc3n2C[C@H](C)N2CCOCC2)cc1Cl [SGC-CBP30]
changes in the global levels of H3K18 or H3K27 acetylation [4]: did not observe any significant changes
